Test results: ChEMBL document CHEMBL3045502, “Microwave-assisted synthesis of some new tetrazolo[1,5-a]quinoline-based benzimidazoles catalyzed by p-TsOH and investigation of their antimicrobial activity” (2011)
In brackets after ≈: the same amount, converted by molar mass.

Legend:
Type in all cases: functional
Clostridium tetani = assay: Antimicrobial activity against Clostridium tetani MTCC 449 after 24 to 48 hr by broth microdilution method
Candida albicans = assay: Antimicrobial activity against Candida albicans MTCC 227 after 24 to 48 hr by broth microdilution method
Escherichia coli = assay: Antimicrobial activity against Escherichia coli MTCC 443 after 24 to 48 hr by broth microdilution method
Vibrio cholerae = assay: Antimicrobial activity against Vibrio cholerae MTCC 3906 after 24 to 48 hr by broth microdilution method
Bacillus subtilis = assay: Antimicrobial activity against Bacillus subtilis MTCC 441 after 24 to 48 hr by broth microdilution method
Salmonella typhimurium = assay: (§1) Antimicrobial activity against Salmonella enterica subsp. enterica serovar Typhi MTCC 98 after 24 to 48 hr by broth microdilution method
Aspergillus fumigatus = assay: Antimicrobial activity against Aspergillus fumigatus MTCC 3008 after 24 to 48 hr by broth microdilution method
Streptococcus pneumoniae = assay: Antimicrobial activity against Streptococcus pneumoniae MTCC 1936 after 24 to 48 hr by broth microdilution method
[1] = as §1

Compound	MIC (Clostridium tetani)	MIC (Candida albicans)	MIC (Escherichia coli)	MIC (Vibrio cholerae)	MIC (Bacillus subtilis)	MIC (Salmonella typhimurium)	MIC (Aspergillus fumigatus)	MIC (Streptococcus pneumoniae)	MIC [1]
Clc1ccc2c(c1)cc(-c1nc3cc(Cl)ccc3[nH]1)c1nnnn12	250 µg/mL (≈ 704 µM)	1000 µg/mL (≈ 2820 µM)	125 µg/mL (≈ 352 µM)	500 µg/mL (≈ 1410 µM)	125 µg/mL (≈ 352 µM)	500 µg/mL (≈ 1410 µM)	> 1000 µg/mL	250 µg/mL (≈ 704 µM)	–
O=C(O)c1cn(C2CC2)c2cc(N3CCNCC3)c(F)cc2c1=O [CIPROFLOXACIN]	–	–	25 µg/mL (≈ 75.4 µM)	25 µg/mL (≈ 75.4 µM)	–	25 µg/mL (≈ 75.4 µM)	–	50 µg/mL (≈ 151 µM)	–
CC1(C)S[C@@H]2[C@H](NC(=O)[C@H](N)c3ccccc3)C(=O)N2[C@H]1C(=O)O [AMPICILLIN]	250 µg/mL (≈ 715 µM)	–	100 µg/mL (≈ 286 µM)	100 µg/mL (≈ 286 µM)	250 µg/mL (≈ 715 µM)	100 µg/mL (≈ 286 µM)	–	100 µg/mL (≈ 286 µM)	–
Cc1ccc2c(c1)cc(-c1nc3cc(Cl)ccc3[nH]1)c1nnnn12	500 µg/mL (≈ 1490 µM)	1000 µg/mL (≈ 2990 µM)	250 µg/mL (≈ 747 µM)	500 µg/mL (≈ 1490 µM)	500 µg/mL (≈ 1490 µM)	500 µg/mL (≈ 1490 µM)	> 1000 µg/mL	500 µg/mL (≈ 1490 µM)	–
Cc1ccc2c(c1)cc(-c1nc3ccccc3[nH]1)c1nnnn12	200 µg/mL (≈ 666 µM)	1000 µg/mL (≈ 3330 µM)	100 µg/mL (≈ 333 µM)	250 µg/mL (≈ 832 µM)	100 µg/mL (≈ 333 µM)	125 µg/mL (≈ 416 µM)	1000 µg/mL (≈ 3330 µM)	200 µg/mL (≈ 666 µM)	–
O=C(N[C@H](CO)[C@H](O)c1ccc([N+](=O)[O-])cc1)C(Cl)Cl [CHLORAMPHENICOL]	50 µg/mL (≈ 155 µM)	–	50 µg/mL (≈ 155 µM)	50 µg/mL (≈ 155 µM)	50 µg/mL (≈ 155 µM)	50 µg/mL (≈ 155 µM)	–	50 µg/mL (≈ 155 µM)	–
CCn1cc(C(=O)O)c(=O)c2cc(F)c(N3CCNCC3)cc21 [NORFLOXACIN]	50 µg/mL (≈ 157 µM)	–	10 µg/mL (≈ 31.3 µM)	10 µg/mL (≈ 31.3 µM)	100 µg/mL (≈ 313 µM)	10 µg/mL (≈ 31.3 µM)	–	10 µg/mL (≈ 31.3 µM)	–
COc1ccc2c(c1)cc(-c1nc3cc(C)ccc3[nH]1)c1nnnn12	250 µg/mL (≈ 757 µM)	250 µg/mL (≈ 757 µM)	500 µg/mL (≈ 1510 µM)	500 µg/mL (≈ 1510 µM)	500 µg/mL (≈ 1510 µM)	500 µg/mL (≈ 1510 µM)	500 µg/mL (≈ 1510 µM)	500 µg/mL (≈ 1510 µM)	–
COc1ccc2c(c1)cc(-c1nc3cc(Br)ccc3[nH]1)c1nnnn12	250 µg/mL (≈ 633 µM)	1000 µg/mL (≈ 2530 µM)	500 µg/mL (≈ 1270 µM)	500 µg/mL (≈ 1270 µM)	500 µg/mL (≈ 1270 µM)	500 µg/mL (≈ 1270 µM)	1000 µg/mL (≈ 2530 µM)	1000 µg/mL (≈ 2530 µM)	–
COc1ccc2c(c1)cc(-c1nc3cc(Cl)ccc3[nH]1)c1nnnn12	500 µg/mL (≈ 1430 µM)	250 µg/mL (≈ 713 µM)	500 µg/mL (≈ 1430 µM)	500 µg/mL (≈ 1430 µM)	125 µg/mL (≈ 356 µM)	500 µg/mL (≈ 1430 µM)	500 µg/mL (≈ 1430 µM)	500 µg/mL (≈ 1430 µM)	–
Cc1ccc2c(c1)cc(-c1nc3cc(C)ccc3[nH]1)c1nnnn12	500 µg/mL (≈ 1590 µM)	1000 µg/mL (≈ 3180 µM)	250 µg/mL (≈ 795 µM)	500 µg/mL (≈ 1590 µM)	500 µg/mL (≈ 1590 µM)	1000 µg/mL (≈ 3180 µM)	> 1000 µg/mL	500 µg/mL (≈ 1590 µM)	–
NYSTATIN	–	100 µg/mL	–	–	–	–	100 µg/mL	–	–
GENTAMICIN	5 µg/mL	–	0.05 µg/mL	5 µg/mL	1 µg/mL	–	–	0.5 µg/mL	5 µg/mL
Cc1ccc2c(c1)cc(-c1nc3cc(Br)ccc3[nH]1)c1nnnn12	1000 µg/mL (≈ 2640 µM)	1000 µg/mL (≈ 2640 µM)	500 µg/mL (≈ 1320 µM)	250 µg/mL (≈ 659 µM)	500 µg/mL (≈ 1320 µM)	500 µg/mL (≈ 1320 µM)	> 1000 µg/mL	250 µg/mL (≈ 659 µM)	–
Clc1ccc2c(c1)cc(-c1nc3cc(Br)ccc3[nH]1)c1nnnn12	500 µg/mL (≈ 1250 µM)	1000 µg/mL (≈ 2500 µM)	250 µg/mL (≈ 626 µM)	500 µg/mL (≈ 1250 µM)	250 µg/mL (≈ 626 µM)	250 µg/mL (≈ 626 µM)	> 1000 µg/mL	500 µg/mL (≈ 1250 µM)	–
Brc1ccc2[nH]c(-c3cc4ccccc4n4nnnc34)nc2c1	250 µg/mL (≈ 685 µM)	1000 µg/mL (≈ 2740 µM)	100 µg/mL (≈ 274 µM)	250 µg/mL (≈ 685 µM)	500 µg/mL (≈ 1370 µM)	100 µg/mL (≈ 274 µM)	1000 µg/mL (≈ 2740 µM)	250 µg/mL (≈ 685 µM)	–
Cc1ccc2[nH]c(-c3cc4ccccc4n4nnnc34)nc2c1	500 µg/mL (≈ 1660 µM)	500 µg/mL (≈ 1660 µM)	125 µg/mL (≈ 416 µM)	500 µg/mL (≈ 1660 µM)	250 µg/mL (≈ 832 µM)	250 µg/mL (≈ 832 µM)	1000 µg/mL (≈ 3330 µM)	500 µg/mL (≈ 1660 µM)	–
COc1ccc2c(c1)cc(-c1nc3ccccc3[nH]1)c1nnnn12	500 µg/mL (≈ 1580 µM)	500 µg/mL (≈ 1580 µM)	250 µg/mL (≈ 790 µM)	250 µg/mL (≈ 790 µM)	250 µg/mL (≈ 790 µM)	250 µg/mL (≈ 790 µM)	1000 µg/mL (≈ 3160 µM)	250 µg/mL (≈ 790 µM)	–
COC1=CC(=O)C[C@@H](C)[C@]12Oc1c(Cl)c(OC)cc(OC)c1C2=O [GRISEOFULVIN]	–	500 µg/mL (≈ 1420 µM)	–	–	–	–	100 µg/mL (≈ 283 µM)	–	–
Clc1ccc2[nH]c(-c3cc4ccccc4n4nnnc34)nc2c1	500 µg/mL (≈ 1560 µM)	500 µg/mL (≈ 1560 µM)	250 µg/mL (≈ 779 µM)	500 µg/mL (≈ 1560 µM)	500 µg/mL (≈ 1560 µM)	100 µg/mL (≈ 312 µM)	1000 µg/mL (≈ 3120 µM)	500 µg/mL (≈ 1560 µM)	–
Clc1ccc2c(c1)cc(-c1nc3ccccc3[nH]1)c1nnnn12	250 µg/mL (≈ 779 µM)	125 µg/mL (≈ 390 µM)	1000 µg/mL (≈ 3120 µM)	500 µg/mL (≈ 1560 µM)	250 µg/mL (≈ 779 µM)	250 µg/mL (≈ 779 µM)	500 µg/mL (≈ 1560 µM)	500 µg/mL (≈ 1560 µM)	–
c1ccc2c(c1)cc(-c1nc3ccccc3[nH]1)c1nnnn12	250 µg/mL (≈ 873 µM)	1000 µg/mL (≈ 3490 µM)	500 µg/mL (≈ 1750 µM)	200 µg/mL (≈ 699 µM)	200 µg/mL (≈ 699 µM)	500 µg/mL (≈ 1750 µM)	> 1000 µg/mL	500 µg/mL (≈ 1750 µM)	–
Cc1ccc2[nH]c(-c3cc4cc(Cl)ccc4n4nnnc34)nc2c1	500 µg/mL (≈ 1490 µM)	1000 µg/mL (≈ 2990 µM)	250 µg/mL (≈ 747 µM)	250 µg/mL (≈ 747 µM)	125 µg/mL (≈ 373 µM)	500 µg/mL (≈ 1490 µM)	> 1000 µg/mL	250 µg/mL (≈ 747 µM)	–
